Here are results for three substances from publication PMC2288786 (BMC Structural Biology, 2008).

Where no end group is shown, it is not given here.

Data set [1] concerns CaM. Briefly: Affinity chromatography of human brain MBP on CaM-sepharose. In kind it is binding. How it is done: Calcium-dependent affinity chromatography of human MBP on CaM-sepharose (GE Healthcare) was carried out as follows: 200 μg of lyophilized human brain MBP were dissolved in 50 mM HEPES pH 7.5, 150 mM NaCl, 2 mM CaCl2. The same buffer that was used to equilibrate 100 μl of the CaM-sepharose matrix. The sample was mixed with the matrix and washed with 5 ml of the above buffer. Elution was done with 1.4 ml of 50 mM HEPES pH 7.5, 150 mM NaCl, 2 mM EGTA. The fractions were applied on a 18% SDS-PAGE gel. To detect which isoforms were bound to CaM-sepharose, fractions 2 (wash) and 7 (EGTA elution) were purified with Vivapure® C18 Micro spin columns prior to analysis by mass spectrometry. MALDI-ToF mass spectrometry was performed with a Voyager-DE STR Biospectrometry Workstation (Applied Biosystems). 1 μl of the protein sample was spotted on sinapinic acid matrix.

For data set [2], the target named is T1, CaM (Rattus norvegicus, UniProt P0DP29).
T1 construct: made in house; host or cells: E. coli Rosetta (DE3)
Nature of the data set: Isothermal titration calorimetry of MBP peptide binding to CaM. Also on record: species or system vertebrate. Here is the method: The peptide was dissolved in 50 mM HEPES pH 7.5, 20 mM CaCl2 and stored at -20°C. […] Native MBP protein isolated using the chloroform extraction method from post-mortem human brain was obtained from FermLab (Turku, Finland).
The samples for the experiment were extensively dialysed against 50 mM HEPES pH 7.5, 20 mM CaCl2 and degassed in an ultrasonic water bath. […] The first injection of 2 μl was followed by 19 15-μl injections of the peptide. The experiment was carried out at +25, +30, +35, and +40°C. The dilution heat was measured by titrating the buffer with the 1 mM peptide solution. […] The raw data were fitted by non-linear least squares minimisation with models for both a single site and four binding sites (see Results), using the Origin version 5.0 software (MicroCal).
(In general: ITC needs no label: the signal is the heat of the interaction.)

Data set [3] deals with T1, CaM. Briefly: Surface plasmon resonance, peptide over immobilised CaM. In kind it is binding, vertebrate. Here is the method:
SPR assays were performed with a Biacore 3000 instrument (Biacore AB, Uppsala, Sweden). […] Binding of the peptide was tested in 10 mM HEPES pH 7.5, 150 mM NaCl, 4 mM CaCl2 containing 0.005% P-20 surfactant (Biacore AB), at a flow rate of 30 μl/min. Various concentrations of the peptide (2.5–200 μM) were injected in duplicate over both of the flow cells for 3 min, and a 6-min dissociation phase followed each injection. The surfaces were regenerated with a 20-s injection of 10 mM EDTA and another 10-s injection of 20 mM NaOH at a flow rate of 30 μl/min prior to the next injection cycle. The BIAevaluation software version 3.1 (Biacore AB) was used to analyse the data. […] Furthermore, a sensorgram of the injection of buffer alone was subtracted from the data. The data were analysed using the various interaction models available in the software, including the mass transfer model. The only model giving a reasonable fit to the data was the conformational change model (see Results).
A 20-μM solution of the peptide in the running buffer was injected over the flow cells of the CaM-coated sensor chip at a flow rate of 30 μl/min, using different injection times (1, 3, and 20 min). Each injection was followed by a 15-min dissociation time. The surface was regenerated and the data were treated as above.

Data set [4] has as its target T1, CaM. Nature of the data set: Far-UV circular dichroism, k2d secondary structure deconvolution. In kind it is physicochemical, vertebrate. To be noted: k2d deconvolution of CD spectrum, +20°C, 10 mM HEPES pH 7.5, 150 mM NaCl, 4 mM CaCl2; CaM 0.050 mg/ml, peptide 0.030 mg/ml. How it is done: The spectra were corrected by subtracting the spectrum of a buffer sample (10 mM HEPES pH 7.5, 150 mM NaCl, 4 mM CaCl2). Noise reduction was applied to smooth the data with the Jasco software. The spectra are presented as mean residue ellipticity (θ), calculated by using the molar concentration of peptide or protein and multiplying by the appropriate number of peptide bonds. […] Secondary structure contents of the samples were estimated with the program […] [26].
(In general: CD spectra are sensitive to the conformation of chiral molecules.)

The target in data set [5] is T1, CaM. Nature of the data set: Size exclusion chromatography of CaM with and without MBP peptide. It counts as binding, vertebrate. To be noted: Superdex 75, free CaM.
Method: Gel filtration chromatography with the ÄKTApurifier system (Pharmacia Biotech) was used to investigate the difference in the behaviour of CaM in the presence and absence of the MBP peptide. A Superdex 75 HR 10/30 column (Amersham Pharmacia Biotech) was equilibrated with 50 mM HEPES buffer pH 7.5, 150 mM NaCl, 4 mM CaCl2. The experiments were run at a flow rate of 0.5 ml/min, the injection volumes were 250 μl, the concentration of CaM was 0.8 mM, and the concentration of the peptide was 4 mM.

With “myelin basic protein (HKGFKGVDAQGTLSKIFKL) [MBP, Native MBP protein isolated using the chloroform extraction method from post-mortem human brain; 17.2- and 18.5-kDa isoforms]”, the “binding to CaM-sepharose in presence of calcium” value with CaM [1] (50 mM HEPES pH 7.5, 150 mM NaCl, 2 mM CaCl2) is listed as “retained in the affinity matrix”. In addition, the “release from CaM-sepharose by EGTA” value in the data set on CaM [1] (50 mM HEPES pH 7.5, 150 mM NaCl, 2 mM EGTA) is “released”. The “MBP isoforms in EGTA eluate” value with CaM [1] (MALDI-ToF mass spectrometry) is 17.2 and 18.5 kDa, were both present in the EGTA eluate.

A word on the Kd: it is the equilibrium constant for the complex coming apart. Regarding HKGFKGVDAQGTLSKIFKL [MBP peptide], the Kd on CaM [2] was determined as 25.9 µM; on CaM [2] (25°C (298.15 K), fit to the specific binding site only (one site, peaks 2–7), 1.0 mM peptide into 0.10 mM CaM, 50 mM HEPES pH 7.5, 20 mM CaCl2), 3.4 µM; on CaM [2] (30°C (303.15 K), fit to the specific binding site only (one site, peaks 2–7), 1.0 mM peptide into 0.10 mM CaM, 50 mM HEPES pH 7.5, 20 mM CaCl2) it was 2.3 µM; on CaM [2] (35°C (308.15 K), fit to the specific binding site only (one site, peaks 2–7), 1.0 mM peptide into 0.10 mM CaM, 50 mM HEPES pH 7.5, 20 mM CaCl2), 1.9 µM; at CaM [3], 58 µM. Further, the Kd in words result at CaM [2] (ITC, different temperatures) is “low μM range”.

On to calmodulin [CaM], for which, in the data set with CaM [4], the Random coil content came out at 0.12, the α-Helix content is on record as 0.88 and the β-Sheet content amounted to 0. Also, at CaM [5], the “apparent molecular weight in gel filtration” value is “approximately 30 kDa”.
